From US10220092B2, “Devices, systems and methods for optogenetic modulation of action potentials in target cells” (The Board of Trustees of the Leland Stanford Junior …, priority 2013, dated 2019)

What was measured:
[1] = test system: acid-sensing ion channels (ASICs); assay: Pharmacological blockade of the ChR2 bystander current by the ASIC inhibitor amiloride; format: cell-based, mice
Method: Whole cell patch clamp recordings on cortical and hippocampus neurons were performed on an upright Leica DM-LFSA microscope. Slices were continually perfused in warmed (33° C.) ACSF at a rate of 7 ml min^−1 Patching was performed in the presence of synaptic transmission blockers 6-cyano-7-nitroquinoxaline-2,3-dione (CNQX, 50 μM) and D(−)-2-amino-5-phosphonovaleric acid (APV, 25 μM) and gabazine (25 μM) (Tocris Bioscience) except for during testing of electrically-evoked synaptic responses. For amiloride experiments, amiloride was added to the ACSF at a concentration of 500 μM (Tocris). Borosilicate glass (Sutter Instruments) pipette resistances were pulled to 3-6 MΩ and filled with potassium gluconate intracellular solution (130 mM K Gluconate, 10 mM KCl, 10 mM HEPES, 10 mM EGTA, 2 mM MgCl2, pH adjusted with KOH to 7.3). Voltage and current clamp electrophysiological recordings and manipulations were performed using pClamp (Axon Instruments). Cells were held at −70 mV for all experiments. Cells with leak current greater than −300 pA or pipette resistance greater than 30 MΩ were excluded. […]

[2] = test system: cultured hippocampal neurons; assay: Whole cell patch clamp of cultured hippocampal neurons expressing eArch3.0-ASIC2a (Champ) constructs; format: cell-based, rat
Description: Construct design for hippocampal neurons: The protein sequence of rat ASIC2a (Genbank accession number NM_001034014.1) was human codon optimized and synthesized by Genscript. eArch3.0 and ASIC-YFP fusions were cloned into an AAV2 backbone either under a CaMKIIα or human synapsin promoter. The trafficking signal (TS) and endoplasmic reticulum export signal (ER) sequences were appropriately added to enhance membrane trafficking. All maps and sequence details are on the website: www(dot)optogenetics(dot)org.
Hippocampal neuron culture and calcium phosphate transfection (as per Mattis et al. (Nat Methods 2011; 9: 159-72)). Primary cultured hippocampal neurons were prepared from PO Sprague-Dawley rat pups (Charles River). CA1 and CA3 were isolated, digested with 0.4 mg ml^−1 papain (Worthington), and plated onto glass coverslips precoated with 1:30 Matrigel (Becton Dickinson Labware). […]
Electrophysiological recordings in cultured hippocampal neurons: Whole cell patch clamp recordings were performed on cultured hippocampal neurons 4-8 days post-transfection on an upright Leica DM-LFSA microscope (Mattis et al, 2011). […] Data acquisition, current and light manipulations were controlled using pClamp (Axon Instruments) via a Digidata 1440A interface and analyzed using ClampFit software (Axon Instruments). […]

Xenopus laevis oocytes = assay: Two-electrode voltage clamp of CsR proton pump co-expressed with rat ASICs in oocytes; format: cell-based; conditions: co-expressed with CsRT46N; 560 nm, 0.1 mM MOPS, pH 7.5
Method: Two-component optogenetics experiments. Construct design and expression in Xenopus laevis oocytes: The coding sequences for rat ASICs (in pRSSP6009) were provided by Stefan Grander (Aachen). The pRSSP6009 plasmid coding for ASICs and the pGEM plasmid coding for Coccomyxa subellipsoidea C-169 Rhodopsin CsRT46N were linearized by MulI site in pRSSP 6009 and by NheI in pGEM. After transcription into RNA using T7 (pGEM) or SP6 (pRSSP6009) mMessage mMachine Kit (Ambion Inc, Texas, USA) 32 ng of capped RNA encoding CsR pump and one type of ASIC were co-injected into Xenopus leavis oocytes with a molar ratio of 1:1 pump:channel for ASIC1 and ASIC2a and a molar ratio of 1:2 for ASIC3. Oocytes were incubated for 3 days at 18° C. in ORI solution with 1 μM all-trans retinal (Tsunoda & Hegemann, 2009).
Two-electrode voltage clamp measurements: TEVC measurements on X. laevis oocytes were performed using a GeneClamp 500 amplifier (Axon Instruments, Union City). Data acquisition, buffer exchange and light triggering were controlled with pClamp software via a Digidata 1322A interface (Molecular Devices, Sunnyvale). […] For pH titration, buffer solutions were adjusted with 5 mM MOPS/MES/Citrate over the range of pH 8.0 to 4.0, and were subsequently compared with photocurrents measured at 0.1 mM MOPS at pH 7.5

N=C(N)NC(=O)c1nc(Cl)c(N)nc1N [amiloride]
Magnitude of light-evoked bystander current, relative to baseline value ([1]; 500 μM amiloride applied for 20 minutes, hippocampal ChR2 bystander neurons, 15 s light pulse): ~50%
Membrane resistance during amiloride application ([1]; 500 μM amiloride, absence of any illumination): increase in membrane resistance

Champ4.0: eArch3.0 and ASIC2a separated during protein translation by the ribosomal skip sequence p2A; SEQ ID NO:34
Presence and reliability of the inward ASIC-mediated current component ([2]; head-to-head comparison, increasing molecular separation, 0.1 mM buffer): occasionally saw large ASIC currents
Cell health measures (leak current, membrane resistance, pipette resistance, resting membrane potential) across groups ([2]; one-way ANOVA across 5 groups): no significant differences

B1: ASIC3: rat acid-sensing ion channel co-expressed with CsR in oocytes (protein, UniProt O35240 1-533, looked up)
Acid-sensing ion channel 3: MKPRSGLEEAQRRQASDIRVFASSCTMHGLGHIFGPGGLTLRRGLWATAVLLSLAAFLYQVAERVRYYGEFHHKTTLDERESHQLTFPAVTLCNINPLRRSRLTPNDLHWAGTALLGLDPAEHAAYLRALGQPPAPPGFMPSPTFDMAQLYARAGHSLEDMLLDCRYRGQPCGPENFTVIFTRMGQCYTFNSGAHGAELLTTPKGGAGNGLEIMLDVQQEEYLPIWKDMEETPFEVGIRVQIHSQDEPPAIDQLGFGAAPGHQTFVSCQQQQLSFLPPPWGDCNTASLDPDDFDPEPSDPLGSPRPRPSPPYSLIGCRLACESRYVARKCGCRMMHMPGNSPVCSPQQYKDCASPALDAMLRKDTCVCPNPCATTRYAKELSMVRIPSRASARYLARKYNRSESYITENVLVLDIFFEALNYEAVEQKAAYEVSELLGDIGGQMGLFIGASLLTILEILDYLCEVFQDRVLGYFWNRRSAQKRSGNTLLQEELNGHRTHVPHLSLGPRPPTTPCAVTKTLSASHRTCYLVTRL
Inactivation in sustained light (Xenopus laevis oocytes): strong inactivation
